Results taken from publication PMC5430962, “Retro-inverso Urokinase Receptor Antagonists for the Treatment of Metastatic Sarcomas” (Scientific Reports, 2017).
[ ]: non-standard residue; d: D form. Aib = CC(C)(N)C(=O)O

Assays:
[1] = test system: HT1080 cells; assay: HT1080 cell migration toward 10% FBS in Boyden chambers; format: cell-based, human; conditions: 10 nM peptide plus 10% FBS, 4 hr, means of three independent experiments in triplicate
Description: Cell migration in Boyden chambers was carried out for 4 hr at 37 °C in humidified air with 5% CO2, as described. Briefly, cell suspension (1 × 10^5 viable cells/mL serum free medium) was seeded in each upper chamber. Lower chambers were filled with DMEM alone, DMEM containing RI peptides, 10 nM fMLF, or 10% FBS with/without RI peptides. The two compartments were separated by 8 μm pore size polycarbonate filters (Neuroprobe) coated with 2.5 µg/mL vitronectin (Corning). For the invasion assays, 8 μm pore size filters were coated with 50 μg/filter matrigel (BD Biosciences) as previously described[40] and cells (3 × 10^4 viable cells/well) were allowed to invade matrigel for 6 hr at 37 °C, 5% CO2. In all cases, at the end of the assay, cells on the lower filter surface were fixed with ethanol, stained with haematoxylin and 10 random fields/filter were counted at 200× magnification. Each experiment was performed three times in triplicate.

[2] = test system: HT1080 cells; assay: Matrigel invasion kinetics, xCELLigence RTCA, HT1080; format: cell-based, human
Description: This assay was performed using E-well plates and the xCELLigence RTCA technology as described. Bottom wells were coated with 20 µg/well matrigel diluted in serum free medium. Matrigel was allowed to polymerize for 1 hr at 37 °C prior to seeding cells (1 × 10^4 cells/well) suspended in growth medium plus/minus RI peptides. Cells that cross matrigel adhere to the bottom of plates causing impedance changes that are proportional to the number of invading cells, and are expressed as a cell index value. Matrigel invasion was monitored for 20 hr. The experiments were performed three times in quadruplicate.

[3] = target: T1, FPR1 (Homo sapiens, UniProt P21462); assay: Ligand binding assay: FITC-fMLF binding to RBL-2H3/ETFR cells; conditions: 100 nM unlabeled peptide 60 min at 4 °C, then 10 nM FITC-fMLF 60 min at 4 °C; fluorescence plate reader
T1 construct: expressed in transfected cells; host or cells: rat basophilic leukaemia RBL-2H3/ETFR cells (gift of F. Blasi)
T1 sequence (P21462 1-350): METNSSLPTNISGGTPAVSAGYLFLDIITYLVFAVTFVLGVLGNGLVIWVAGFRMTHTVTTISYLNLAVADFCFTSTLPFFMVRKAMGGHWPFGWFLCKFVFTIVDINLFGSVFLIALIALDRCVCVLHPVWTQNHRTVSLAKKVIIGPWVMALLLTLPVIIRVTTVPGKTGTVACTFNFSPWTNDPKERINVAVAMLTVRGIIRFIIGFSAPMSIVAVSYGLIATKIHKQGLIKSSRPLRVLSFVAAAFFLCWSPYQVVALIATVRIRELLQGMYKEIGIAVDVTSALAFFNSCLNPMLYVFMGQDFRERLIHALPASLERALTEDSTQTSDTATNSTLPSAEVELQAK
Description: RBL-2H3 cells, RBL-2H3/ETFR cells stably expressing FPR1 (1.5 × 10^6 cells/sample) were pre-incubated with diluents or the indicated unlabeled peptides for 60 min at 4 °C, extensively rinsed with phosphate buffer saline (PBS), exposed to 10 nM FITC-fMLF (Molecular Probes) in PBS for additional 60 min at 4 °C and again rinsed with PBS. Cell-associated fluorescence was quantitated with the fluorescence plate reader Victor 3 (Perkin Elmer) using 485 nm excitation and 535 nm emission filters. The experiments were performed three times in triplicate.

[4] = test system: Akt (Ser473) phosphorylation; assay: Akt phosphorylation by Western blot in RBL-2H3/ETFR cells; format: cell-based, rat; conditions: 0 to 10 minutes
Description: RBL-2H3/ETFR grown to semi-confluence, were exposed to DMEM alone, 10 nM fMLF with/without 10 nM RI-3 at 37 °C in humidified air with 5% CO2. At the indicated times, cells were lysed in RIPA buffer and cell lysate protein content was measured by a colorimetric assay. Western blot analysis of AKT phosphorylation was performed as previously described using anti-phospho-Akt (Ser473) (pAKT) Ab (Cell Signaling) and anti-Akt mAb (R&D System). The effects of fMLF with/without 10 nM RI-3 were analyzed at the level of global kinase phosphorylation, using the dot-blot Proteome Profiler^TM Array Human PhosphoKinase Array Kit (R&D Systems), according to manufacturer’s instructions. Briefly, 300 µg of protein were applied on each membrane and the signals were detected as described for Western blot. The pixel density of each spot was measured using NIH Image 1.62 software. The intensity of positive control spots was used to normalize results between the four membranes. The intensity for each spot was then averaged over the duplicate spots.

[5] = test system: HT1080 cells; assay: Cell proliferation, MTS assay; format: cell-based, human; conditions: 10 µM in growth medium, replaced every 24 hr
Description: (§1) Cell proliferation was assessed using the xCELLigence RTCA technology as described. Cells (2 × 10^3/well) were seeded in E-well plates in growth medium and left to growth for 85 hr in the presence or the absence of 10 µM RI-3. For MTS assay, cells seeded on plates in growth medium plus/minus 10 µM RI-3, were allowed to proliferate at 37 °C in 5% CO2 and the absorbance of adherent cells stained with tetrazolium/formazan was assessed with a microplate reader. In both cases, medium with or without RI-3 was replaced every 24 hr. Data are the means ± SD of three independent experiments, performed in triplicate.

[6] = test system: cell proliferation; assay: Cell proliferation, xCELLigence RTCA; format: cell-based; conditions: 10 µM in growth medium, 85 hr, replaced every 24 hr
Description: as §1

[7] = test system: Sarc cells crossing HUVEC monolayer; assay: Trans-endothelial migration of Sarc cells, xCELLigence RTCA; format: cell-based, human; conditions: 10 nM, EBM-10% FBS, slopes in a 25–35 hr time frame
Description: Trans-endothelial migration assays were performed using the xCELLigence RTCA technology as described. Briefly, HUVECs (1 × 10^4 cells/well) suspended in growth medium, were seeded in E-plates and allowed to grow for ~25 hr, until they form a confluent monolayer, prior to seeding Sarc cells (1 × 10^4 cells/well) in growth medium plus/minus 10 nM RI-3. When HUVECs are challenged with crossing cells, there is a drop in electrical resistance that is monitored in real-time as cell index changes due to the rupture of the endothelial monolayer. The experiment was performed twice in quadruplicate.

Ac-[dY][dR][Aib][dR]-NH2 (SMILES CC(=O)N[C@H](Cc1ccc(O)cc1)C(=O)N[C@H](CCCNC(=N)N)C(=O)NC(C)(C)C(=O)N[C@H](CCCNC(=N)N)C(N)=O) [RI-3]
reduction of FBS-directed cell migration [1]: 57%
reduction of matrigel invasion (slope of cell index) ([2]; HT1080, 10 nM, 10% FBS, 20 hr): 64%
IC50 ([2]; increasing concentrations plus 10% FBS, matrigel invasion 20 hr, xCELLigence, read-out: concentration at which an overall 50% reduction of cell invasion was reached): 0.01 nM
effect on binding of FITC-fMLF to RBL-2H3/ETFR cells [3]: prevented binding of FITC-fMLF to RBL-2H3/ETFR cells to a similar extent as compared to fMLF as well as RERF
effect on fMLF-induced Akt phosphorylation ([4]; 10 nM fMLF with 10 nM peptide): consistently decreased
effect of peptide alone on Akt phosphorylation ([4]; 10 nM, no fMLF): did not affect Akt phosphorylation
effect on number of metabolically active cells (MTS) [5]: no difference was apparent
effect on cell proliferation and doubling times (xCELLigence) [6]: no difference was apparent
reduction of the capability of Sarc cells to disrupt endothelial monolayers [7]: 24%
